# According to patent US5684034A, “1H-indole-3-acetamide sPLA2 inhibitors” (Eli Lilly and Company, priority 1995, dated 1997):
# Counter-ions that a name gives are not always drawn.
# Target: T1, recombinant human secreted phospholipase A2 (Homo sapiens, UniProt P14555)
# T1 sequence (P14555 21-144): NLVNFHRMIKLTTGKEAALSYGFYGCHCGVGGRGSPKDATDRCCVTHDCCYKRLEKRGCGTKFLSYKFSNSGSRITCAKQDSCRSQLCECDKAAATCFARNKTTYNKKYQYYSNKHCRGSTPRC
# Assay: Human secreted phospholipase A2 inhibition test (chromogenic assay, diheptanoyl thio-PC substrate)
# Type: biochemical
# Details: Inhibition of human secreted PLA2 IC50 ± mean deviation (3-5 tests), pH 7.5, 40° C., 30 minutes, 405 nm
# Procedure: The following chromogenic assay procedure was used to identify and evaluate inhibitors of recombinant human secreted phospholipase A2. The assay described herein has been adapted for high volume screening using 96 well microtiter plates.
# A measured volume of racetic dipheptanoyl thio PC supplied in chloroform at a concentration of 100 mg/ml is taken to dryness and redissolved in 10 millimolar TRITON X-100™ nonionic detergent aqueous solution. Reaction Buffer is added to the solution, then DTNB to give the Reaction Mixture.
# The reaction mixture thus obtained contains 1 mM diheptanoly thio-PC substrate, 0.29 mm Triton X-100™ detergent, and 0.12 mm DTMB in a buffered aqueous solution at pH 7.5.
# 1. Add 0.2 ml reaction mixture to all wells;
# 2. Add 10 ul test compound (or solvent blank) to appropriate wells, mix 20 seconds:
# 3. Add 50 nanograms of sPLA2 (10 microliters) to appropriate wells;
# 4. incubate plate at 40° C. for 30 minutes;
# All compounds were tested in triplicate. […] Each sample was titrated in triplicate and result values were averaged for plotting and calculation of IC50 values. […] Each IC50 value was determined three times.
row,Structure (SMILES),IC50 [nM]
1,"CCc1c(CC(N)=O)c2cc(OCCCP(=O)(O)OC)ccc2n1Cc1ccccc1 [Example 63, [3-[[3-(2-Amino-2-oxoethyl)-2-ethyl-1-(phenylmethyl)-1H-indol-5-yl]oxy]propyl]phosphonic acid monomethyl ester]",39 ± 5
2,"NC(=O)Cc1c(C2CC2)n(Cc2ccccc2)c2ccc(OCCCP(=O)(O)O)cc12 [Example 79, [3-[[3-(2-Amino-2-oxoethyl)-2-cyclopropyl-1-(phenylmethyl)-1H-indol-5-yl]oxy]propyl]phosphonic acid]",46 ± 6
3,CCOP(=O)(COc1cccc2c1c(CC(N)=O)c(C)n2Cc1ccccc1)OCC [Example 67],1680
4,"NC(=O)Cc1cn(Cc2ccccc2)c2ccc(OCCCP(=O)(O)O)cc12 [Example 80, [3-[[3-(2-Amino-2-oxoethyl)-1-(phenylmethyl)-1H-indol-5-yl]oxy]propyl]phosphonic acid]",200 ± 90
5,NC(=O)Cc1c(Br)n(Cc2ccccc2)c2ccc(OCCCP(=O)(O)O)cc12 [Example 88],30 ± 6

# Continued, values first:
row,IC50 [nM],Structure (SMILES)
1,3300 ± 100,"Cc1c(CC(N)=O)c2cc(NCCC(=O)O)ccc2n1Cc1ccccc1 [Example 27, 3-[[3-(2-Amino-2-oxoethyl)-2-methyl-1-(phenylmethyl)-1H-indol-5-yl]amino]propanoic acid]"
2,1160 ± 410,"Cc1c(CC(N)=O)c2cc(OCC(=O)O)ccc2n1Cc1ccccc1 [Example 19, 2-[[3-(2-Amino-2-oxoethyl)-2-methyl-1-(phenylmethyl)-1H-indol-5-yl]oxy]acetic acid]"

# Same assay, conditions: pH 7.5, 40° C., 30 minutes, 405 nm; read-out: Inhibition of human secreted PLA2 IC50 ± mean deviation (3-5 tests)
row,Structure (SMILES),IC50 [nM]
1,CCc1c(CC(N)=O)c2cc(OCCCC(=O)NN)ccc2n1Cc1ccccc1 [Example 59],74
2,"CCCCCCCCCCn1c(C)c(CC(N)=O)c2cc(OC)ccc21 [Example 14, 1-Decyl-5-methoxy-2-methyl-1H-indole-3-acetamide]",8480 ± 5250
3,Cc1c(CC(N)=O)c2cc(OCCCC(=O)O)ccc2n1CC1CCCCC1 [Example 54],650 ± 150
4,CCCCCCn1c(C)c(CC(N)=O)c2cc(OCCCC(=O)O)ccc21 [Example 50],2470 ± 1310
5,"CCc1c(CC(N)=O)c2cc(OCCCP(=O)(O)O)ccc2n1Cc1cccc(Cl)c1 [Example 64, [3-[[3-(2-Amino-2-oxoethyl)-1-[(3-chlorophenyl)methyl]-2-ethyl-1H-indol-5-yl]oxy]propyl]phosphonic acid]",16 ± 1
6,"Cc1c(CC(N)=O)c2c(OCC(=O)O)cccc2n1Cc1ccccc1-c1ccccc1 [Example 73, [[3-(2-Amino-2-oxoethyl)-1-([1,1'-biphenyl]-2-ylmethyl)-2-methyl-1H-indol-4-yl]oxy]acetic acid sodium salt]",10 ± 1
7,CCCCCCCCn1c(C)c(CC(N)=O)c2cc(OCCCC(=O)O)ccc21 [Example 52],770 ± 270
8,"NC(=O)Cc1c(Br)n(Cc2ccccc2)c2ccc(OCCCC(=O)O)cc12 [Example 43, 4-[[3-(2-Amino-2-oxoethyl)-2-bromo-1-(phenylmethyl)-1H-indol-5-yl]oxy]butanoic acid]",70 ± 30
9,"NC(=O)Cc1cn(Cc2ccccc2)c2ccc(O)cc12 [Example 82, 5-Hydroxy-1-(phenylmethyl)-1H-indole-3-acetamide]",3680 ± 190
10,"NC(=O)Cc1cn(Cc2ccccc2)c2ccc(OCCCC(=O)O)cc12 [Example 83, 4-[[3-(2-Amino-2-oxoethyl)-1-(phenylmethyl)-1H-indol-5-yl]oxy]butanoic acid]",150 ± 40
11,"CCc1c(CC(N)=O)c2cc(OCc3ccccc3C(=O)O)ccc2n1Cc1ccccc1 [Example 99, 2-[[[3-(2-Amino-2-oxoethyl)-2-ethyl-1-(phenylmethyl)-1H-indol-5-yl]oxy]methyl]benzoic acid]",540 ± 180
12,"C=CCc1c(OCCCP(=O)(O)O)ccc2c1c(CC(N)=O)c(CC)n2Cc1ccccc1 [Example 94, [3-[[4-Allyl-3-(2-amino-2-oxoethyl)-2-ethyl-1-(phenylmethyl)-1H-indol-5-yl]oxy]propyl]phosphonic acid disodium salt]",612 ± 65
13,"CCc1c(CC(N)=O)c2cc(OCCCC(N)=O)ccc2n1Cc1ccccc1 [Example 60, 5-(4-Amino-4-oxobutoxy)-2-ethyl-1-(phenylmethyl)-1H-indole-3-acetamide]",104 ± 17
14,"CCOC(=O)CCCOc1ccc2c(c1)c(CC(N)=O)c(SC)n2Cc1ccccc1 [Example 45, 4-[[3-(2-Amino-2-oxoethyl)-2-(methylthio)-1-(phenylmethyl)-1H-indol-5-yl]oxy]butanoic acid ethyl ester]",1550 ± 510
15,"CCc1c(CC(N)=O)c2cc(OCc3ccccc3C(=O)OC)ccc2n1Cc1ccccc1 [Example 98, 2-[[[3-(2-Amino-2-oxoethyl)-2-ethyl-1-(phenylmethyl)-1H-indol-5-yl]oxy]methyl]benzoic acid methyl ester]",1150 ± 320

# Further lines, results first:
row,IC50 [nM],Structure (SMILES)
1,3610 ± 750,"Cc1c(CC(N)=O)c2ccc(O)cc2n1Cc1ccccc1 [Example 30, 6-Hydroxy-2-methyl-1-(phenylmethyl)-1H-indole-3-acetamide]"
2,21400 ± 8550,"COc1ccc2c(c1)c(CC(N)=O)c(C)n2Cc1ccccn1 [Example 8, 5-Methoxy-2-methyl-1-[(2-pyridyl)methyl]-1H-indole-3-acetamide]"
3,360 ± 70,"Cc1c(CC(N)=O)c2c(OCC(N)=O)cccc2n1Cc1ccccc1 [Example 66, 4-(2-Amino-2-oxoethoxy)-2-methyl-1-(phenylmethyl)-1H-indole-3-acetamide]"
4,2370 ± 790,COC(=O)COc1cccc2c1c(CC(N)=O)c(C)n2Cc1cccc(Cl)c1 [Example 71]
5,195 ± 65,"Cc1c(CC(N)=O)c2cc(OCCCS(=O)(=O)O)ccc2n1Cc1ccccc1 [Example 84, 3-[4-[[3-(2-Amino-2-oxoethyl)-2-methyl-1-(phenylmethyl)-1H-indol-5-yl]oxy]propane]sulfonic acid]"
6,12200 ± 550,"Cc1c(CC(N)=O)c2ccc(OCCCC(=O)O)cc2n1Cc1ccccc1 [Example 32, 4-[[3-(2-Amino-2-oxoethyl)-2-methyl-1-(phenylmethyl)-1H-indol-6-yl]oxy]butanoic acid]"
7,3840 ± 1320,"COC(=O)c1cccc(COc2ccc3c(c2)c(CC(N)=O)c(C)n3Cc2ccccc2)c1 [Example 100, 3-[[[3-(2-Amino-2-oxoethyl)-2-methyl-1-(phenylmethyl)-1H-indol-5-yl]oxy]methyl]benzoic acid methyl ester]"
8,118 ± 11,"NC(=O)Cc1c(C2CC2)n(Cc2ccccc2)c2ccc(O)cc12 [Example 78, 2-Cyclopropyl-5-hydroxy-1-(phenylmethyl)-1H-indole-3-acetamide]"
9,1300 ± 290,"COc1ccc2c(c1)c(CC(N)=O)c(C)n2Cc1c(Cl)cccc1Cl [Example 6, 1-(2,6-Dichlorophenylmethyl)-5-methoxy-2-methyl-1H-indole-3-acetamide]"
10,1330 ± 450,"Cc1ccc2c(CC(N)=O)c(C)n(Cc3ccccc3)c2c1 [Example 1, 2,6-Dimethyl-1-(phenylmethyl)-1H-indole-3-acetamide]"
11,340 ± 100,"CCc1c(CC(N)=O)c2cc(O)ccc2n1Cc1ccccc1 [Example 56, 2-Ethyl-5-hydroxy-1-(phenylmethyl)-1H-indole-3-acetamide]"
12,1890 ± 500,"Cc1c(CC(N)=O)c2cc(OCc3cccc(C(=O)O)c3)ccc2n1Cc1ccccc1 [Example 101, 3-[[[3-(2-Amino-2-oxoethyl)-2-methyl-1-(phenylmethyl)-1H-indol-5-yl]oxy]methyl]benzoic acid]"
13,2360 ± 150,"COc1cccc2c1c(CC(N)=O)c(C)n2Cc1ccccc1 [Example 35, 4-Methoxy-2-methyl-1-(phenylmethyl)-1H-indole-3-acetamide]"
14,2490,"COC(=O)CCN(CCC(=O)OC)c1ccc2c(c1)c(CC(N)=O)c(C)n2Cc1ccccc1 [Example 26, 3,3'-[[3-(2-Amino-2-oxoethyl)-2-methyl-1-(phenylmethyl)-1H-indol-5-yl]imino]bis[propanoic acid]dimethyl ester]"
15,620 ± 180,"COC(=O)c1ccccc1COc1ccc2c(c1)c(CC(N)=O)c(C)n2Cc1ccccc1 [Example 96, 2-[[[3-(2-Amino-2-oxoethyl)-2-methyl-1-(phenylmethyl)-1H-indol-5-yl]oxy]methyl]benzoic acid methyl ester]"
16,3340 ± 460,"COC(=O)CCNc1ccc2c(c1)c(CC(N)=O)c(C)n2Cc1ccccc1 [Example 25, 3-[[3-(2-Amino-2-oxoethyl)-2-methyl-1-(phenylmethyl)-1H-indol-5-yl]amino]propanoic acid methyl ester]"
17,230 ± 60,"COc1ccc2c(c1)c(CC(N)=O)c(Br)n2Cc1ccccc1 [Example 42, 2-Bromo-5-methoxy-1-(phenylmethyl)-1H-indole-3-acetamide]"
18,336 ± 23,"COc1ccc2c(c1)c(CC(N)=O)c(C1CC1)n2Cc1ccccc1 [Example 77, 2-Cyclopropyl-5-methoxy-1-(phenylmethyl)-1H-indole-3-acetamide]"

# Same assay, conditions: unit printed aM; pH 7.5, 40° C., 30 minutes, 405 nm; read-out: Inhibition of human secreted PLA2 IC50 ± mean deviation (3-5 tests)
row,IC50 [nM],Structure (SMILES)
1,380 ± 140,"CSc1c(CC(N)=O)c2cc(O)ccc2n1Cc1ccccc1 [Example 44, 5-Hydroxy-2-(methylthio)-1-(phenylmethyl)-1H-indole-3-acetamide]"
